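How tested: cells in 96-well plates exposed to compound for 48 hours at five concentrations. GI50 marks 50% less growth. TGI marks complete inhibition of growth.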
Key:
Assay in all cases: NCI-60 cell line screen, 48 h
[1] = test system: SK-MEL-5 melanoma
[2] = test system: SF-539 CNS
[3] = test system: SF-295 CNS
[4] = test system: UACC-62 melanoma
[5] = test system: SR leukemia
[6] = test system: HS 578T breast
[7] = test system: BT-549 breast
[8] = test system: MDA-MB-435
[9] = test system: HOP-62 NSCLC
[10] = test system: NCI-H226 lung
[11] = test system: SNB-75 CNS
[12] = test system: HOP-92 NSCLC
[13] = test system: NCI/ADR-RES ovarian
[14] = test system: KM12 colon
[15] = test system: 786-0 renal
[16] = test system: SK-MEL-2 melanoma
[17] = test system: CCRF-CEM leukemia
[18] = test system: MCF7 breast
[19] = test system: HT29 colon
[20] = test system: RPMI-8226 leukemia
[21] = test system: U251 CNS
[22] = test system: SK-OV-3 ovarian
[23] = test system: OVCAR-4 ovarian
[24] = test system: PC-3 prostate
[25] = test system: NCI-H460 lung
[26] = test system: K-562 leukemia
[27] = test system: SK-MEL-28 melanoma
[28] = test system: RXF 393 renal
[29] = test system: A549 NSCLC

## CC(C)=CCc1c(O)c(CC=C(C)C)c2c(c1O)C(=O)C1=C[C@@H]3C[C@H]4C(C)(C)O[C@@](C/C=C(\C)C(=O)O)(C3=O)[C@@]14O2
[1]
  TGI: 36.1 µM
[2]
  GI50: 17.3 µM
  TGI: 41.2 µM
[3]
  GI50: 33.9 µM
  TGI: > 100 µM
[4]
  GI50: 19.9 µM
  TGI: 50.8 µM
[5]
  GI50: 16.1 µM
  TGI: > 100 µM
[6]
  GI50: 42.6 µM
  TGI: > 100 µM
[7]
  GI50: 16.8 µM
  TGI: 33.8 µM
[8]
  GI50: 23.9 µM
  TGI: 62.9 µM
[9]
  GI50: 23.8 µM
  TGI: 58.7 µM
[10]
  GI50: 25.4 µM
  TGI: 58.9 µM
[11]
  GI50: 31.9 µM
  TGI: > 100 µM
[12]
  GI50: 19 µM
  TGI: 45 µM
[13]
  GI50: 33.3 µM
  TGI: > 100 µM
[14]
  GI50: 21.2 µM
  TGI: 47.1 µM
[15]
  GI50: 18.8 µM
  TGI: 37.3 µM
[16]
  GI50: 19.8 µM
  TGI: 43 µM
[17]
  GI50: 18.5 µM
  TGI: 76.5 µM
[18]
  GI50: 19 µM
  TGI: > 100 µM
[19]
  GI50: 23.7 µM
  TGI: 64.3 µM
[20]
  GI50: 12.8 µM
  TGI: 50.8 µM
[21]
  GI50: 17.4 µM
  TGI: 38.5 µM
[22]
  GI50: 59.6 µM
  TGI: > 100 µM
[23]
  GI50: 41.7 µM
  TGI: > 100 µM
[24]
  GI50: 25 µM
  TGI: 64.8 µM
[25]
  GI50: 19.8 µM
  TGI: 44 µM
[26]
  GI50: 24 µM
  TGI: > 100 µM
[27]
  GI50: 24.8 µM
  TGI: 69.1 µM
[28]
  GI50: 21.6 µM
  TGI: 42.2 µM
[29]
  GI50: 38.4 µM
  TGI: > 100 µM
